Source: patent publication US20190314431A1, “Method of Discovery of Potential Bioactive Compounds in Herbals by Regrouping after Chromatography” (priority 2018, published 2019)

Test system: mice initiated with morphine
Experiment: Anti-opioid addiction effectiveness test of grouped herbal compounds in mice
Format: in vivo
Method: Mice will be initiated with morphine at 1 mg/ml for 21 days.
The second test: use separate groups of compounds to test effectiveness in mice. The definition of effective.
1. Ten Mice in Each Group.

`CN1CC[C@]23c4c5ccc(O)c4O[C@H]2[C@@H](O)C=C[C@H]3[C@H]1C5` [Morphine] was tested, and the Effective (3rd test, regrouped compounds of groups 2 and 9) was “Yes” and the Effective (second test, ten mice in each group, mice initiated with morphine at 1 mg/ml for 21 days) was “Yes”.
